The values that follow come from ChEMBL document CHEMBL3044587, “Synthesis of B-ring substituted flavones and evaluation of their antitumor and antioxidant activities” (Med Chem Res, 2013).

What all share (assay type): functional
Test [1] deals with MCF7. In words: Growth inhibition of Homo sapiens (human) MCF7 cells at 100 uM after 48 hr by SRB assay. As to conditions: MCF7, 48 h, read-out: GI. For orientation: The SRB assay estimates cell density from bound dye.
Test [2] concerns MOLT-4. In words: Growth inhibition of Homo sapiens (human) MOLT4 cells at 100 uM after 48 hr by SRB assay. As to conditions: MOLT-4, 48 h, read-out: GI.
Another test relates to Liver microsome. In words: Antioxidant activity in Wistar albino Rattus norvegicus (rat) liver microsomes assessed as inhibition of lipid peroxidation after 1 hr by TBARS method.
Test [3] concerns HepG2. In words: Growth inhibition of Homo sapiens (human) HepG2 cells at 100 uM after 48 hr by SRB assay. As to conditions: HepG2, 48 h, read-out: GI.
Test [4] concerns MCF7. In words: Cytotoxicity against Homo sapiens (human) MCF7 cells after 48 hr by SRB assay. As to conditions: MCF7, 48 h.
Test [5] concerns HepG2. In words: Cytotoxicity against Homo sapiens (human) HepG2 cells after 48 hr by SRB assay. As to conditions: HepG2, 48 h.
Test [6] has as its system MOLT-4. In words: Cytotoxicity against Homo sapiens (human) MOLT4 cells after 48 hr by SRB assay. The conditions noted are these: MOLT-4, 48 h.

Values after ≈ are worked out from the molar mass of the structure shown. Where a name gives a salt, the structure may show the parent alone.

Consider `O=c1cc(-c2ccc(Cl)cc2)oc2ccccc12`, for which the inhibition of growth at 100 µM with MCF7 [1], with MOLT-4 [2] and with HepG2 [3] was under 50% each time. Besides, the concentration for half-maximal inhibition (IC50) with Liver microsome was 60 µg/mL (≈ 234 µM).
With `O=c1cc(-c2ccc(Cl)c([N+](=O)[O-])c2)oc2ccccc12`, the GI50 with MCF7 [4] came to 40.9 µM; in the test on HepG2 [5], 93.8 µM; in the test on MOLT-4 [6], 50.7 µM. Further, the concentration for half-maximal inhibition (IC50) in the test with Liver microsome was found to be 80 µg/mL (≈ 265 µM).
For `O=c1cc(-c2cccc([N+](=O)[O-])c2)oc2ccccc12`, in that order: 31 µM, 94.9 µM, 36 µM and 60 µg/mL (≈ 225 µM).
In the case of `COc1ccc(-c2cc(=O)c3ccccc3o2)cc1OC` [3',4'-DIMETHOXYFLAVONE], the inhibition of growth at 100 µM in the test on MCF7 [1], with MOLT-4 [2] and in the test on HepG2 [3] was under 50% throughout. In addition, in the test on Liver microsome, the IC50 is 40 µg/mL (≈ 142 µM).
Take `COc1cc(OC)cc(-c2cc(=O)c3ccccc3o2)c1` [3',5'-DIMETHOXYFLAVONE]: the GI50 was under 0.1 µM with MCF7 [4], 58.8 µM in the test with HepG2 [5] and under 0.1 µM with MOLT-4 [6]. The IC50 in the test with Liver microsome was 40 µg/mL (≈ 142 µM).
Regarding `COc1ccc(-c2cc(=O)c3ccccc3o2)cc1` [4'-METHOXYFLAVONE], the values for the 50% growth inhibitory concentration (GI50) in the test on MCF7 [4] and in the test with MOLT-4 [6] were 61.8 µM and 99.2 µM, respectively. In the test on Liver microsome, the IC50 amounted to 60 µg/mL (≈ 238 µM). In addition, the inhibition of growth at 100 µM in the test on HepG2 [3] was under 50%.
As for `O=c1cc(-c2ccccc2)oc2cc(O)cc(O)c12` [CHRYSIN], the values for the 50% growth inhibitory concentration (GI50) in the test with MCF7 [4] and in the test on MOLT-4 [6] were 69 µM and 58.6 µM, respectively. The concentration for half-maximal inhibition (IC50) in the test on Liver microsome was determined as 60 µg/mL (≈ 236 µM). For the same compound, the inhibition of growth at 100 µM in the test with HepG2 [3] was under 50%.
As for `COc1cccc2c1C(=O)c1c(O)c3c(c(O)c1C2=O)C[C@@](O)(C(=O)CO)C[C@@H]3O[C@H]1C[C@H](N)[C@H](O)[C@H](C)O1` [DOXORUBICIN HYDROCHLORIDE], the GI50 in the test on MCF7 [4], in the test on HepG2 [5] and with MOLT-4 [6] was under 0.1 µM each time.
In the case of `O=c1cc(-c2ccccc2)oc2ccccc12` [FLAVONE], the figures for the GI50 with MCF7 [4] and in the test with HepG2 [5] were 69.3 µM and 50.6 µM, respectively. Moreover, the inhibition of growth at 100 µM with MOLT-4 [2] was under 50%. Also, in the test with Liver microsome, the IC50 was found to be 100 µg/mL (≈ 450 µM).
Turning to `O=c1c(O)c(-c2ccc(O)c(O)c2)oc2cc(O)cc(O)c12` [QUERCETIN], the IC50 in the test with Liver microsome turned out to be 20 µg/mL (≈ 66.2 µM).

For orientation: IC50 means the concentration needed to halve the response being measured. A word on the GI50: it is the concentration giving 50% growth inhibition. Read a low GI50 as greater sensitivity of the cells.
